Converted amounts (≈) assume the structure as drawn.
Key:
[1] = tested on: Pseudomonas aeruginosa; assay: Antibacterial activity against Pseudomonas aeruginosa ATCC 9027 assessed as reduction in bacterial cell growth incubated for overnight by two-fold serial dilution method; type: functional
[2] = Inhibition of Saccharomyces cerevisiae CGMCC 2.145 chitin synthase using GlcNAc and UDP-GlcNAc as substrate incubated for 60 mins by microplate reader analysis
[3] = tested on: Candida albicans; assay: Antifungal activity against Candida albicans ATCC 76615 assessed as reduction in fungal cell growth incubated for 48 hrs by two-fold serial dilution method; type: functional; details: ATCC 76615, 48 h
[4] = tested on: Cryptococcus neoformans; assay: Antifungal activity against Cryptococcus neoformans ATCC 32719 assessed as reduction in fungal cell growth incubated for 48 hrs by two-fold serial dilution method; type: functional; details: ATCC 32719, 48 h
[5] = tested on: Aspergillus flavus; assay: Antifungal activity against Aspergillus flavus ATCC 16870 assessed as reduction in fungal cell growth incubated for 48 hrs by two-fold serial dilution method; type: functional; details: ATCC 16870, 48 h
[6] = tested on: Staphylococcus aureus; assay: Antibacterial activity against Staphylococcus aureus ATCC 25923 assessed as reduction in bacterial cell growth incubated for overnight by two-fold serial dilution method; type: functional
[7] = tested on: Staphylococcus aureus; assay: Antibacterial activity against methicillin resistant Staphylococcus aureus N 315 assessed as reduction in bacterial cell growth incubated for overnight by two-fold serial dilution method; type: functional
[8] = tested on: Bacillus subtilis; assay: Antibacterial activity against Bacillus subtilis ATCC 6633 assessed as reduction in bacterial cell growth incubated for overnight by two-fold serial dilution method; type: functional
[9] = tested on: Proteus vulgaris; assay: Antibacterial activity against Bacillus proteus ATCC 8427 assessed as reduction in bacterial cell growth incubated for overnight by two-fold serial dilution method; type: functional
[10] = tested on: Escherichia coli; assay: Antibacterial activity against Escherichia coli JM109 assessed as reduction in bacterial cell growth incubated for overnight by two-fold serial dilution method; type: functional
[11] = tested on: Saccharomyces cerevisiae; assay: Inhibition of Saccharomyces cerevisiae CGMCC 2.145 chitin synthase using GlcNAc and UDP-GlcNAc as substrate at 300 ug/ml incubated for 60 mins by microplate reader analysis relative to control

For `CCCCNC[C@H](O)CN1CCN(c2cccc3c2CCC(=O)N3)CC1.Cl`, the MIC [1] was 128 µg/mL, the IC50 [2] was 340 µM and the MIC [3] was 64 µg/mL. The MIC [4] was 256 µg/mL, the MIC [5] was 512 µg/mL and the MIC [6] was 256 µg/mL. It also gave an MIC [7] of 256 µg/mL, an MIC [8] of 512 µg/mL and an MIC [9] of 256 µg/mL. For the same molecule, the MIC [10] was 128 µg/mL.

In the case of `Cl.O=C1CCc2c(cccc2N2CCN(CC(O)Cn3ccnc3)CC2)N1` (racemic), the MIC [1] is reported as 128 µg/mL, the inhibition [11] is reported as 53.3% and the IC50 [2] is reported as 470 µM. The MIC [3] was 64 µg/mL, the MIC [4] was 256 µg/mL and the MIC [5] was 256 µg/mL. It also gave an MIC [6] of 64 µg/mL, an MIC [7] of 128 µg/mL and an MIC [8] of 64 µg/mL. It also gave an MIC [9] of 128 µg/mL and an MIC [10] of 128 µg/mL.

Work on `Cl.O=C1CCc2c(cccc2N2CCN(CC(O)CNc3ccccc3)CC2)N1` (racemic) yielded an MIC [1] of 256 µg/mL, an inhibition [11] of 62.7% and an IC50 [2] of 150 µM. The MIC [3] was 64 µg/mL, the MIC [4] was 128 µg/mL and the MIC [5] was 128 µg/mL. It also gave an MIC [6] of 128 µg/mL, an MIC [7] of 128 µg/mL and an MIC [8] of 128 µg/mL. For the same molecule, the MIC [9] was 128 µg/mL and the MIC [10] was 256 µg/mL.

`Cl.O=C1CCc2c(cccc2N2CCN(CC(O)CNc3ccccc3Cl)CC2)N1` (racemic) showed an MIC [1] of 256 µg/mL, an inhibition [11] of 52.4% and an IC50 [2] of 470 µM. It also gave an MIC [3] of 32 µg/mL, an MIC [4] of 512 µg/mL and an MIC [5] of 128 µg/mL. The MIC [6] was 64 µg/mL, the MIC [7] was 128 µg/mL and the MIC [8] was 128 µg/mL. For the same molecule, the MIC [9] was 64 µg/mL and the MIC [10] was 128 µg/mL.

`Cl.O=C1CCc2c(cccc2N2CCN(CC(O)CNc3ccc(Cl)cc3)CC2)N1` (racemic) showed an MIC [1] of 128 µg/mL, an inhibition [11] of 59.3% and an IC50 [2] of 360 µM. The MIC [3] was 32 µg/mL, the MIC [4] was 256 µg/mL and the MIC [5] was 256 µg/mL. The MIC [6] was 64 µg/mL, the MIC [7] was 64 µg/mL and the MIC [8] was 64 µg/mL. It also gave an MIC [9] of 128 µg/mL and an MIC [10] of 128 µg/mL.

`Cl.O=C1CCc2c(cccc2N2CCN(CC(O)CNc3ccc(Br)cc3)CC2)N1` (racemic) gave an MIC [1] of 256 µg/mL, an inhibition [11] of 55.4% and an IC50 [2] of 380 µM. It also gave an MIC [3] of 64 µg/mL, an MIC [4] of 256 µg/mL and an MIC [5] of 64 µg/mL. The MIC [6] was 64 µg/mL, the MIC [7] was 128 µg/mL and the MIC [8] was 64 µg/mL. It also gave an MIC [9] of 128 µg/mL and an MIC [10] of 256 µg/mL.

For `COc1ccc(NCC(O)CN2CCN(c3cccc4c3CCC(=O)N4)CC2)cc1.Cl` (racemic), the MIC [1] was 128 µg/mL, the inhibition [11] was 84.9% and the IC50 [2] was 100 µM. The MIC [3] was 32 µg/mL, the MIC [4] was 128 µg/mL and the MIC [5] was 128 µg/mL. For the same molecule, the MIC [6] was 64 µg/mL, the MIC [7] was 128 µg/mL and the MIC [8] was 128 µg/mL. The MIC [9] was 256 µg/mL and the MIC [10] was 64 µg/mL.

In the case of `CCCCNCC(O)CN1CCN(c2cccc3c2CCC(=O)N3)CC1.Cl` (racemic), the MIC [1] is reported as 256 µg/mL, the inhibition [11] is reported as 63.7% and the IC50 [2] is reported as 370 µM. For the same molecule, the MIC [3] was 64 µg/mL, the MIC [4] was 256 µg/mL and the MIC [5] was 256 µg/mL. The MIC [6] was 256 µg/mL, the MIC [7] was 128 µg/mL and the MIC [8] was 256 µg/mL. The MIC [9] was 256 µg/mL and the MIC [10] was 256 µg/mL.

`NC(=O)OC[C@H](O)[C@@H](O)[C@H](N)C(=O)N[C@H](C(=O)O)[C@H]1O[C@@H](n2cc(CO)c(=O)[nH]c2=O)[C@H](O)[C@@H]1O` [POLYOXIN B] gave an inhibition [11] of 85.1%, an IC50 [2] of 180 µM and an MIC [3] of 32 µg/mL (≈ 63.1 µM). The MIC [4] was 8 µg/mL (≈ 15.8 µM) and the MIC [5] was 32 µg/mL (≈ 63.1 µM).

Source: ChEMBL document CHEMBL4359852, “Design, synthesis and biological evaluation of novel 5-(piperazin-1-yl)quinolin-2(1H)-one derivatives as potential chitin synthase inhibitors and antifungal agents” (Eur J Med Chem, 2019)
